Usually IC50 stands for the concentration that gives 50% inhibition.

One test deals with T1, full length human TREX1 (Homo sapiens, UniProt Q9NSU2).
T1 construct: N-terminally His-Tev tagged full length human TREX1; made in house; host or cells: E. coli
T1 sequence (Q9NSU2 1-314): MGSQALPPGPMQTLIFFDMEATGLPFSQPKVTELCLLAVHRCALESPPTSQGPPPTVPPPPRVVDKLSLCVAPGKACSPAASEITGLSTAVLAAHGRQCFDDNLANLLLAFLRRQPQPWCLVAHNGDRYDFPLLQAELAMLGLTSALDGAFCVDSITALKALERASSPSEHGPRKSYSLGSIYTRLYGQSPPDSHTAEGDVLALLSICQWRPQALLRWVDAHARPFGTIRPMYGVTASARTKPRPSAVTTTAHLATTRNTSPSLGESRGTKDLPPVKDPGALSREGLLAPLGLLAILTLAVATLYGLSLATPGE
The test can be described thus: hTREX1 Biochemical Assay (fluorescence, dsDNA substrate degradation). The following applies: biochemical, read-out: hTREX1 IC50. The procedure, abridged: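 Fluorescence rises as enzyme degrades a quenched TEX615-labelled dsDNA substrate (60 nM) in 50 mM Tris, 150 mM NaCl, 5 mM MgCl2, pH 7.4. Full-length His-Tev-tagged human TREX1, 4 pM, sits with compound 4 hours at 25° C before substrate; reaction 18 hours, stopped with EDTA.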

The next test deals with T2, full length mouse TREX1 (Mus musculus, UniProt Q91XB0).
T2 construct: N-terminally His-Tev tagged full length mouse TREX1; made in house; host or cells: E. coli
T2 sequence (Q91XB0 1-314): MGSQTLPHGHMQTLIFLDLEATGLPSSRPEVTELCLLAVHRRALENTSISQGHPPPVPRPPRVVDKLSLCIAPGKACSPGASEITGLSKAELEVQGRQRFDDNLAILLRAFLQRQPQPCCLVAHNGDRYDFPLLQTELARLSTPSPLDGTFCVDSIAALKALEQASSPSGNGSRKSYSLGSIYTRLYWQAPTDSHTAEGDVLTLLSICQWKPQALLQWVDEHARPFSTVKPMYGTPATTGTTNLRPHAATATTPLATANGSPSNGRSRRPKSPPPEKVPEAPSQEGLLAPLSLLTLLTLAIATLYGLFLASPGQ
The test can be described thus: mTREX1 Biochemical Assay (fluorescence, dsDNA substrate degradation). Particulars: biochemical, read-out: mTREX1 IC50. In outline: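 Reaction run 18 h at 25° C. with 60 nM TEX615/quencher-labelled dsDNA and 6 pM mouse TREX1 in Tris buffer (pH 7.4, 5 mM MgCl2, 1.0% DMSO), enzyme having sat 4 h with compound across 10 concentrations. EDTA quench; substrate degradation measured as fluorescence increase.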

The target of test [1] is T3, human TREX2 (residues M44-A279) (Homo sapiens, UniProt Q9BQ50).
T3 construct: human TREX2 (residues M44-A279, expressed in E. coli); made in house; host or cells: E. coli
T3 sequence (Q9BQ50 44-279 isoform Q9BQ50-1): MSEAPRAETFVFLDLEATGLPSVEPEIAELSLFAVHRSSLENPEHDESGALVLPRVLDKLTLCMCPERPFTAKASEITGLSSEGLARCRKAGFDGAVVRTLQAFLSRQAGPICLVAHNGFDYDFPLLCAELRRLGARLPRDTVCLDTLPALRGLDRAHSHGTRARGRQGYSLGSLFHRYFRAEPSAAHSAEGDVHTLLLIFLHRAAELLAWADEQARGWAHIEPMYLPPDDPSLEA
Put plainly: hTREX2 Biochemical Assay (fluorescence, dsDNA substrate degradation). The following applies: biochemical selectivity for hTREX1 vs hTREX2. The method, then: Degradation of the dsDNA liberates free fluorophore to produce a fluorescent signal. Specifically, 7.5 μL of N-terminally His-Tev tagged human TREX2 (residues M44-A279, expressed in E. coli and purified in house) in reaction buffer (50 mM Tris, 150 mM NaCl, 2 mM DTT, 0.1 mg/mL BSA, 0.01% (w/v) Tween-20, 5 mM MgCl2, pH 7.4) was added to a 384-well Black ProxiPlate Plus (PerkinElmer) which already contained compound (150 nL) at varying concentrations as a 10 point dose-response in DMSO. The plate was incubated at 25° C. for 4 hours. Reactions were initiated by adding 7.5 μL of dsDNA substrate (Strand A: 5′ TEX615/GCT AGG CAG 3′; Strand B: 5′ CTG CCT AGC/IAbRQSp (IDT)) in reaction buffer. Final concentrations were 50 pM TREX2, 60 nM dsDNA substrate in reaction buffer with 1.0% DMSO (v/v). After 18 hours at 25° C., reactions were quenched by the addition of 2 μL of 500 mM EDTA. Final concentrations in the quenched reaction mixture were 44 pM TREX2, 53 nM DNA and 59 mM EDTA in a volume of 17 μL. After a 5-minute incubation at room temperature, plates were read in an EnVision plate reader (PerkinElmer) measuring fluorescence at 615 nm following excitation w/570 nm light.

As for `CCn1cc(C(c2ccccc2C#N)C(C)c2nc(C(=O)Nc3cnoc3)c(O)c(=O)n2C)cn1` (single isomer, unassigned) [Example 13 D1E2], the IC50 on full length human TREX1 and on full length mouse TREX1 was over 10 nM in each case. For the same compound, the “hTREX1 vs hTREX2 selectivity” value in test [1] is reported as “B (B = 25 to 50-fold selective for hTREX1)”.
`CC(c1nc(C(=O)Nc2cnoc2)c(O)c(=O)n1C)C(c1cnn(C)c1)c1cc(F)ccc1C#N` (single isomer, unassigned) [Example 14 D2E1]: the IC50 at full length human TREX1 and on full length mouse TREX1 was over 10 nM each time. Moreover, the “hTREX1 vs hTREX2 selectivity” value in test [1] is listed as “A (A = <25 fold selective for hTREX1)”.
For the compound `CC(c1nc(C(=O)Nc2cnoc2)c(O)c(=O)n1C)C(c1cnn(C)c1)c1ccc(F)cc1C#N` (single isomer, unassigned) [Example 15 D2E1], the IC50 on full length human TREX1 and on full length mouse TREX1 was over 10 nM in each case. In addition, the “hTREX1 vs hTREX2 selectivity” value in test [1] is recorded as “B (B = 25 to 50-fold selective for hTREX1)”.
As for `CCn1cc(C(c2cc(F)ccc2C#N)C(C)c2nc(C(=O)Nc3cnoc3)c(O)c(=O)n2C)cn1` (single isomer, unassigned) [Example 17 D2E1], the IC50 on full length human TREX1 and at full length mouse TREX1 was over 10 nM throughout. In addition, the “hTREX1 vs hTREX2 selectivity” value in test [1] is given as “B (B = 25 to 50-fold selective for hTREX1)”.
Consider `CC(c1nc(C(=O)Nc2cnoc2)c(O)c(=O)n1C)C(c1cnn(CCN2CCOCC2)c1)c1ccccc1C#N` (single isomer, unassigned) [Example 20 D2E1], for which the concentration for half-maximal inhibition (IC50) at full length human TREX1 and on full length mouse TREX1 was over 10 nM each time. The “hTREX1 vs hTREX2 selectivity” value in test [1] was “B (B = 25 to 50-fold selective for hTREX1)”.
With `CC(c1nc(C(=O)Nc2cnoc2)c(O)c(=O)n1C)C(c1cnn(CCN2CCN(C(=O)OC(C)(C)C)CC2)c1)c1ccccc1C#N` (single isomer, unassigned) [Example 21 D2E1], the IC50 at full length human TREX1 and on full length mouse TREX1 was over 10 nM throughout. In addition, the “hTREX1 vs hTREX2 selectivity” value in test [1] is “B (B = 25 to 50-fold selective for hTREX1)”.
On to `CC(c1nc(C(=O)Nc2cnoc2)c(O)c(=O)n1C)C(c1cnn(CC(F)(F)F)c1)c1ccccc1C#N` (single isomer, unassigned) [Example 22 D2E1], for which the IC50 at full length human TREX1 and at full length mouse TREX1 was over 10 nM in each case. In test [1], the “hTREX1 vs hTREX2 selectivity” value is recorded as “B (B = 25 to 50-fold selective for hTREX1)”.
`CC(c1nc(C(=O)Nc2cnoc2)c(O)c(=O)n1C)C(c1cnn(C)c1)c1cc(Cl)ccc1C#N` (single isomer, unassigned) [Example 26 D2E1]: the IC50 at full length human TREX1 and on full length mouse TREX1 was over 10 nM each time. For the same compound, the “hTREX1 vs hTREX2 selectivity” value in test [1] is listed as “B (B = 25 to 50-fold selective for hTREX1)”.
In the case of `CC(c1nc(C(=O)Nc2cnoc2)c(O)c(=O)n1C)C(c1cnn(C)c1)c1ccc(Cl)cc1C#N` (single isomer, unassigned) [Example 27 D1E2], the IC50 on full length human TREX1 and at full length mouse TREX1 was over 10 nM in each case. For the same compound, the “hTREX1 vs hTREX2 selectivity” value in test [1] is reported as “C (C = >50 fold selective for hTREX1)”.
In the case of `CC(c1nc(C(=O)Nc2cnoc2)c(O)c(=O)n1C)C(c1cnn(CCN2CCN(C)CC2)c1)c1ccccc1C#N` (single isomer, unassigned) [Example 32 D2E1], the half-maximal inhibitory concentration (IC50) at full length human TREX1 and at full length mouse TREX1 was over 10 nM in each case. For the same compound, the “hTREX1 vs hTREX2 selectivity” value in test [1] is “C (C = >50 fold selective for hTREX1)”.
In the case of `CC(c1nc(C(=O)Nc2cnoc2)c(O)c(=O)n1C)C(c1cnn(CCCN(C)C)c1)c1ccccc1C#N` (single isomer, unassigned) [Example 34 D2E1], the IC50 at full length human TREX1 and at full length mouse TREX1 was over 10 nM in each case. For the same compound, in test [1], the “hTREX1 vs hTREX2 selectivity” value is reported as “C (C = >50 fold selective for hTREX1)”.
For the compound `CC(c1nc(C(=O)Nc2cnoc2)c(O)c(=O)n1C)C(c1cnn(CC(C)(C)O)c1)c1ccccc1C#N` (single isomer, unassigned) [Example 36 D2E1], the IC50 at full length human TREX1 and on full length mouse TREX1 was over 10 nM in each case. For the same compound, the “hTREX1 vs hTREX2 selectivity” value in test [1] is “B (B = 25 to 50-fold selective for hTREX1)”.

The record behind these values is patent US20240246946A1, “MODULATORS OF TREX1” (Constellation Pharmaceuticals, Inc., priority 2021, published 2024).
